Results from patent publication US6599893B2, “Cephalosporin antibiotics and prodrugs thereof” (Essential Therapeutics, Inc., priority 2000, dated 2003).
Values after ≈ are worked out from the molar mass of the structure shown. Read-outs that look alike come from different tables or passages of the source.

Experiments:
[1] = system: Staphylococcus aureus Smith (MSSA); assay: Broth microdilution MIC, S. aureus Smith; type: cell-based; details: Staphylococcus aureus Smith (MSSA); for MIC: read-out: MIC S. a. Smith
Description: (§1) Compounds were evaluated for antimicrobial activity against a panel of bacterial strains using a broth microdilution assay performed as recommended by the NCCLS (NCCLS (National Committee for Clinical Laboratory Standards). 1993. Methods for dilution antimicrobial susceptibility tests for bacteria that grow aerobically. NCCLS Document M7-A3, 1993. In: NCCLS Antimicrobial Susceptibility Testing, 3rd Ed.)
(§2) The minimum inhibitory concentration (MIC) is defined as the lowest concentration of a compound that prevents the growth of the bacteria.

[2] = Human serum binding by ultrafiltration; type: in vitro ADME
Description: Binding of several representative compounds of this invention in pooled human serum was determined using ultrafiltration. Compounds were incubated in serum for 10 minutes at 37° C. in a shaking water bath. Serum ultrafiltrate was accomplished by centrifugation (Amicon Centrifree) for 20 minutes at 25° C. Compound content in the ultrafiltrate was quantified by HPLC. An ultrafilrate obtained by following the same procedure with no added compound was used as a standard.

[3] = system: Staphylococcus aureus COL (MRSA, non-β-lactamase producing); assay: Broth microdilution MIC, S. aureus COL; type: cell-based; details: Staphylococcus aureus COL (MRSA, non-β-lactamase producing); for MIC: read-out: MIC S. a. COL
Description: as §1, §2

[4] = system: Enterococcus faecium ATCC 35667; assay: Broth microdilution MIC, E. faecium ATCC 35667; type: cell-based; details: Enterococcus faecium ATCC 35667; for MIC: ATCC35667, read-out: MIC E. f. 35667
Description: as §1, §2

[5] = system: Enterococcus faecalis ATCC 29212; assay: Broth microdilution MIC, E. faecalis ATCC 29212; type: cell-based; details: Enterococcus faecalis ATCC 29212; for MIC: ATCC29212, read-out: MIC E. f. 29212
Description: as §1, §2

[6] = system: Staphylococcus aureus 76 (MRSA, β-lactamase producing); assay: Broth microdilution MIC, S. aureus 76; type: cell-based; details: Staphylococcus aureus 76 (MRSA, β-lactamase producing); for MIC: read-out: MIC S. a. 76
Description: as §1, §2

S. aureus strain Smith = assay: Experimental infection of mice, ED50; type: in vivo, Swiss-Webster mice; details: 50% efficacious dose, S. aureus Smith, mice challenged intraperitoneally, compound subcutaneously at 0 and 2 h, total dose, 72 h survival
Description: Staphylococcus aureus strain Smith (ATCC 13709, penicillin-susceptible) or strain 76 (methicillin-resistant) was cultured overnight at 37° C. in brain-heart infusion broth (BHIB). The following morning, a portion of the culture was transferred to fresh BHIB and incubated for an additional 4-5 hours at 37° C. The cells were harvested by centrifugation, washed twice with PBS, and adjusted to the desired inoculum amount. The cell suspension was mixed with an equal volume of sterile 14% hog-gastric mucin (Comber K. R.; Osborne C. D.; Sutherland R.: Comparative effects of amoxicillin and ampicillin in the treatment of experimental mouse infections. Antimicrobial Agents and Chemotherapy 7(2):179-185, 1975). The inoculum was kept in an ice bath until used (preferably in less than one hour).
Male Swiss-Webster mice were challenged intraperitoneally with 0.5 mL of a bacterial suspension of S. aureus strain Smith (LD50). Test compounds were administered subcutaneously in 0.1 mL volumes immediately after inoculation and 2 hours later. […] The total dose associated with 50% survival (ED50) was determined using the probit method (Pasiello, A. P., J. M. Essigmann, and G. N. Wogan.: Rapid and accurate determination of median lethal dose (LD50) and its error with a small computer. J Toxicol. Environ. Health. 3:797-809, 1977).

[7] = system: Staphylococcus aureus ATCC 29213 (MSSA); assay: Broth microdilution MIC, S. aureus ATCC 29213; type: cell-based; details: Staphylococcus aureus ATCC 29213 (MSSA); for MIC: read-out: MIC S. a. 29213
Description: as §1, §2

[8] = Human serum binding estimated from serum effect on MIC (HSB*); type: in vitro ADME
Excerpt: An estimate of human serum binding (HSB*) was obtained for some compounds using the MIC values against S. aureus ATCC 29213 determined in growth medium (GM) and in a 1:1 mixture of growth medium and human serum (GM+HS):
HSB*=(MICGM+HS−MICGM)/MICGM 100%

[9] = pooled human serum, ultrafiltration, 10 minutes at 37° C.
[10] = MIC against S. aureus ATCC 29213 in growth medium vs 1:1 growth medium and human serum

| Compound | MIC S. a. Smith [1] | HSB, human serum binding [2] | MIC S. a. COL [3] | MIC E. f. 35667 [4] | MIC E. f. 29212 [5] | MIC S. a. 76 [6] | ED50, mg/kg (95% C.I.) (S. aureus strain Smith) | MIC S. a. 29213 [7] | HSB*, human serum binding calculated using serum effect on MIC [8] | MIC [1] | HSB, human serum binding [2, 9] | MIC [3] | MIC [4] | MIC [5] | MIC [6] | MIC [7] | HSB*, human serum binding calculated using serum effect on MIC [8, 10] |
| --- | --- | --- | --- | --- | --- | --- | --- | --- | --- | --- | --- | --- | --- | --- | --- | --- | --- |
| NC(=O)CSCc1cnccc1SC1=C(C(=O)O)N2C(=O)[C@@H](NC(=O)/C(=N\O)c3nc(N)sc3Cl)[C@H]2SC1 [Compound 22] | 0.25 µg/mL (≈ 0.406 µM) | 94% | 4 µg/mL (≈ 6.49 µM) | 1 µg/mL (≈ 1.62 µM) | 0.5 µg/mL (≈ 0.812 µM) | 4 µg/mL (≈ 6.49 µM) | 1.15 (0.7-1.6) mg/kg | 0.5 µg/mL (≈ 0.812 µM) | 88% | – | – | – | – | – | – | – | – |
| Nc1nnc(SC2=C(C(=O)O)N3C(=O)[C@@H](NC(=O)C(=NO)c4nc(N)sc4Cl)C3SC2)s1 (stereo partly drawn) [Compound 36, (7R)-7-[2-(2-amino-5-chlorothiazol-4-yl)-2-hydroxyiminoacetylamino]-3-(5-amino-[1,3,4]thiadiazol-2-ylsulfanyl)-8-oxo-5-thia-1-aza-bicyclo[4.2.0]oct-2-ene-2-carboxylic acid] | – | – | – | – | – | – | – | – | – | 0.25 µg/mL (≈ 0.467 µM) | 90% | 1 µg/mL (≈ 1.87 µM) | 1 µg/mL (≈ 1.87 µM) | 0.25 µg/mL (≈ 0.467 µM) | 2 µg/mL (≈ 3.74 µM) | 0.25 µg/mL (≈ 0.467 µM) | 94% |
| Nc1nc(C(=NO)C(=O)N[C@@H]2C(=O)N3C(C(=O)O)=C(Sc4nnc(N)s4)CSC23)ns1 (stereo partly drawn) [Compound 37, (7R)-7-[2-(5-Amino-[1,2,4]thiadiazol-3-yl)-2-hydroxyimino-acetylamino]-3-(5-amino-[1,3,4]thiadiazol-2-ylsulfanyl)-8-oxo-5-thia-1-aza-bicyclo[4.2.0]oct-2-ene-2-carboxylic acid] | – | – | – | – | – | – | – | – | – | 0.125 µg/mL (≈ 0.249 µM) | 79% | 4 µg/mL (≈ 7.98 µM) | 1 µg/mL (≈ 1.99 µM) | 2 µg/mL (≈ 3.99 µM) | 4 µg/mL (≈ 7.98 µM) | 0.25 µg/mL (≈ 0.498 µM) | 50% |
| Nc1nc(C(=NO)C(=O)N[C@@H]2C(=O)N3C(C(=O)O)=C(Sc4nnc[nH]4)CSC23)c(Cl)s1 (stereo partly drawn) [Compound 40, (7R)-7-[2-(2-Amino-5-chlorothiazol-4-yl)-2-hydroxyimino-acetylamino]-8-oxo-3-(4H-[1,2,4]triazol-3-ylsulfanyl)-5-thia-1-aza-bicyclo[4.2.0]oct-2-ene-2-carboxylic acid] | – | – | – | – | – | – | – | – | – | 0.5 µg/mL (≈ 0.994 µM) | 92% | 8 µg/mL (≈ 15.9 µM) | 4 µg/mL (≈ 7.95 µM) | 1 µg/mL (≈ 1.99 µM) | 8 µg/mL (≈ 15.9 µM) | 0.25 µg/mL (≈ 0.497 µM) | 88% |
| Nc1nc(C(=NO)C(=O)N[C@@H]2C(=O)N3C(C(=O)O)=C(Sc4nncs4)CSC23)c(Cl)s1 (stereo partly drawn) [Compound 41, (7R)-7-[2-(2-Amino-5-chlorothiazol-4-yl)-2-hydroxyiminoacetylamino]-8-oxo-3-([1,3,4]thiadiazol-2-ylsulfanyl)-5-thia-1-aza-bicyclo[4.2.0]oct-2-ene-2-carboxylic acid] | – | – | – | – | – | – | – | – | – | 0.125 µg/mL (≈ 0.24 µM) | 91% | 1 µg/mL (≈ 1.92 µM) | 0.5 µg/mL (≈ 0.962 µM) | 0.25 µg/mL (≈ 0.481 µM) | 1 µg/mL (≈ 1.92 µM) | 0.125 µg/mL (≈ 0.24 µM) | 98% |
| Nc1nnc(SC2=C(C(=O)O)N3C(=O)[C@@H](NC(=O)C(=NOCCF)c4nc(N)sc4Cl)C3SC2)s1 (stereo partly drawn) [Compound 42, (7R)-7-[2-(2-Amino-5-chlorothiazol-4-yl)-2-(2-fluoroethoxyimino)-acetylamino]-3-(5-amino-[1,3,4]thiadiazol-2-ylsulfanyl)-8-oxo-5-thia-1-aza-bicyclo[4.2.0]oct-2-ene-2-carboxylic acid] | – | – | – | – | – | – | – | – | – | 0.25 µg/mL (≈ 0.43 µM) | 65% | 2 µg/mL (≈ 3.44 µM) | 4 µg/mL (≈ 6.88 µM) | 1 µg/mL (≈ 1.72 µM) | 2 µg/mL (≈ 3.44 µM) | 0.5 µg/mL (≈ 0.86 µM) | 75% |
| NCCSCc1cnccc1SC1=C(C(=O)O)N2C(=O)[C@@H](NC(=O)/C(=N\O)c3nc(N)sc3Cl)[C@H]2SC1 [RWJ 54428, reference compound] | 0.125 µg/mL (≈ 0.208 µM) | – | 0.5 µg/mL (≈ 0.83 µM) | 0.25 µg/mL (≈ 0.415 µM) | 0.06 µg/mL (≈ 0.0996 µM) | 1 µg/mL (≈ 1.66 µM) | 1.0 (0.7-1.6) mg/kg | 0.25 µg/mL (≈ 0.415 µM) | – | – | 84% | – | – | – | – | – | 67% |
